Experimental findings from patent publication US11833251B2, “Pharmaceutical methods and compositions” (THE UNIVERSITY OF SUSSEX, priority 2018, dated 2023) are described below.

Converted amounts (≈) assume the structure as drawn.

This data set can be described thus: Saturation solubility test of propranolol in various solvents at 37° C. Type of data set: physicochemical.

For the compound `CC(C)NCC(O)COc1cccc2ccccc12` (centres unmarked) [Propranolol, propranolol], the “Mean concentration (mg/ml) ± SD” value (propranolol in Kolliphor EL, 37° C., n = 3) came to 1.32 ± 0.00 mg/mL; the “Mean concentration (mg/ml) ± SD” value (propranolol in Tween 20, 37° C., n = 3) was found to be 1.86 ± 0.00 mg/mL; the “Mean concentration (mg/ml) ± SD” value (propranolol in Tween 80, 37° C., n = 3) was 1.89 ± 0.01 mg/mL. In addition, the solubility thermodynamic (propranolol in Water, 37° C., n = 3, read-out: Mean concentration (mg/ml) ± SD) turned out to be 29.03 ± 0.12 mg/mL (≈ 112 mM). In addition, the Inference entry was “Slightly soluble” (solubility of propranolol in Kolliphor EL), “Slightly soluble” (solubility of propranolol in Tween 20), “Slightly soluble” (solubility of propranolol in Tween 80) and “Sparingly soluble” (solubility of propranolol in Water).
